Reference: US9057727B2, “Screening methods using G-protein coupled receptors and related compositions” (The General Hospital Corporation, priority 2007, dated 2015)
Ends that are not written are not given here. Peptide text beside a SMILES is read from it.

Tests used:
[1] = target: T1, human PTHR, G protein-uncoupled conformation (R^0) (Homo sapiens, UniProt Q03431); assay: Competition binding to R0 conformation of hPTHR (COS-7 membranes, GTPγS, 125I-PTH(1-34) tracer); conditions: for R0:RG: Table 5, fold weaker affinity for R0 than RG; for screen human PIR R0 (% parent): parent PTHrP(1-28)NH
T1 construct: expressed in transfected cells; host or cells: COS-7, transient (Fugene-6)
T1 sequence (Q03431 27-593): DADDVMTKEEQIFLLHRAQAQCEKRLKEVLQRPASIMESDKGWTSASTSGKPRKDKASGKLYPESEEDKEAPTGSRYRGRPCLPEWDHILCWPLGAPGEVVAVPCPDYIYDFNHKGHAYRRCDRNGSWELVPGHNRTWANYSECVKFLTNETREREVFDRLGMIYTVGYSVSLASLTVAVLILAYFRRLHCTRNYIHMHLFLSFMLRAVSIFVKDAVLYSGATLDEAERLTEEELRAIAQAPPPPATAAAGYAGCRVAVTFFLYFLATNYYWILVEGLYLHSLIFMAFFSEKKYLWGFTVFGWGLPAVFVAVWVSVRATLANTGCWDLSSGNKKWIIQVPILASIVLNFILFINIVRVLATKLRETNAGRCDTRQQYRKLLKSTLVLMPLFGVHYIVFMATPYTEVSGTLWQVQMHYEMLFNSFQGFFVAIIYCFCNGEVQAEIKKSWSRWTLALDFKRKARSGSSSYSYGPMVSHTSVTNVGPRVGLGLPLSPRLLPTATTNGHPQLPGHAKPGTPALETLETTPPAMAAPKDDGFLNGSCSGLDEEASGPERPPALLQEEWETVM
Description: Membranes were prepared from COS-7 cells transfected with the hPTHR alone. GTPγS ([…]) was added to the binding reactions so as to functionally uncouple receptor-heterotrimeric G protein complexes, thus enriching for the R^0 (and R) conformations, relative to RG.
Reactions contained a total membrane protein concentration of 20 to 100 μg/mL, and a total radioactivity concentration of approximately 150,000 cpm/ml. Unlabeled peptide ligands and/or GTPγS (Sigma-Aldrich Inc. St. Louis, Mo.) were added to the reactions as indicated.
Membranes, tracer radioligand, and various concentrations of unlabeled ligands and/or GTPγS were incubated in the wells for 90 minutes, following which, the reaction plates were processed by rapid vacuum filtration to separate bound from free radioligand, as described above. […] For both radioligands, the non-specific binding was determined in reactions containing a saturating concentration of the unlabeled analog of the radioligand. The specifically bound radioactivity was calculated as a percent of the radioactivity specifically bound in the absence of a competing ligand or GTPγS.
To assess the capacities of various unlabeled peptide ligands to bind to the G protein-uncoupled and G protein-coupled PTHR conformations (R^0 and RG, respectively), membranes were prepared from transiently transfected COS-7 cells and the following assay conditions.

[2] = target: T2, human PTHR, G protein-coupled conformation (RG) (Homo sapiens, UniProt Q03431); assay: Competition binding to RG conformation of hPTHR (COS-7 membranes, GαsND, 125I-[Aib1,3,M]PTH(1-15) tracer); conditions: parent PTHrP(1-28)NH
T2 construct: expressed in transfected cells; host or cells: COS-7, transient (Fugene-6); membranes
T2 sequence (Q03431 27-593): T1 sequence (Q03431 27-593)

[3] = tested on: LLCPK1-B64 cells or SaOS-2 cells; assay: cAMP screen of substituted PTHrP(1-28) analogs (% parent); format: cell-based; conditions: parent PTHrP(1-28)NH
Description: Alanine substitution at position 18, 22, 25 and 26 increased activity in at least one cell type. These positions were further substituted to various types of amino acids, and cAMP activity was analyzed in LLCPK1-B64 cells (FIG. 27C) or SaOS-2 cells (FIG. 27D). Cells were treated with analogs at 3×10^−9M in the presence of IBMX for 30 minutes at room temperature. Responses for each analog were normalized to the response for the parent (native) PTHrP(1-28) peptide. Alanine substitutions were A^15 to A^17 (SEQ ID NO:152-154), A^18 (SEQ ID NO:34), A^19 to A^21 (SEQ ID NO:155-157), A^22 (SEQ ID NO:39), A^23 to A^25 (SEQ ID NO:158-160), A^26 (SEQ ID NO:46), and A^27 to A^28 (SEQ ID NO:161-162). Substitutions at position 18 were A^18 (SEQ ID NO: 34), G^18 (SEQ ID NO:163), S^18 (SEQ ID NO:35), M^18 (SEQ ID NO:36), L^18 (SEQ ID NO:164), F^18 (SEQ ID NO:37), N^18 (SEQ ID NO:165), E^18 (SEQ ID NO:38), and K^18 (SEQ ID NO:166). Substitutions at position 22 were A^22 (SEQ ID NO:39), G^22 (SEQ ID NO:167), and S^22 to K^22 (SEQ ID NO:40-45). Substitutions at position 26 were A^26 (SEQ ID NO:46), G^26 (SEQ ID NO:168), S^26 (SEQ ID NO:47), L^26 (SEQ ID NO:169), N^26 (SEQ ID NO:48), W^26 to E^26 (SEQ ID NO:170-171), and K^26 to R^26 (SEQ ID NO:49-50). Substitutions at position 25 were G^25 to S^25 (SEQ ID NO:172-173), L^25 (SEQ ID NO:51), N^25 (SEQ ID NO:174), W^25 (SEQ ID NO:52), E^25 (SEQ ID NO:175), and K^25 to R^25 (SEQ ID NO:53-54). […]

Row | Molecule | IC50 ([1]; Table 4, human PTH1 receptor, read-out: R0 binding IC50) | R0/RG ratio ([1]; human PTH receptor on COS-7 cell membranes) | R0:RG [1] | screen human PIR RG (% parent) [2] | screen human PIR R0 (% parent) [1] | screen cAMP (% parent) [3]
1 | CSCC[C@H](NC(=O)[C@H](CC(C)C)NC(=O)[C@H](CCC(N)=O)NC(=O)[C@H](Cc1c[nH]cn1)NC(=O)[C@H](CCC(=O)O)NC(=O)[C@H](CO)NC(=O)[C@@H](NC(=O)[C@@H](N)CO)C(C)C)C(=O)N[C@@H](Cc1c[nH]cn1)C(=O)N[C@@H](CC(N)=O)C(=O)N[C@@H](CC(C)C)C(=O)NCC(=O)N[C@@H](CCCCN)C(=O)N[C@@H](Cc1c[nH]cn1)C(=O)N[C@@H](CC(C)C)C(=O)N[C@@H](CC(N)=O)C(=O)N[C@@H](CO)C(=O)N[C@@H](CCSC)C(=O)N[C@@H](CCC(=O)O)C(=O)N[C@@H](CCCNC(=N)N)C(=O)N[C@H](C(=O)N[C@@H](CCC(=O)O)C(=O)N[C@@H](Cc1c[nH]c2ccccc12)C(=O)N[C@@H](CC(C)C)C(=O)N[C@@H](CCCNC(=N)N)C(=O)N[C@@H](CCCCN)C(=O)N[C@@H](CCCCN)C(=O)N[C@@H](CC(C)C)C(=O)N[C@@H](CCC(N)=O)C(=O)N[C@@H](CC(=O)O)C(=O)N[C@H](C(=O)N[C@@H](Cc1c[nH]cn1)C(=O)N[C@@H](CC(N)=O)C(=O)N[C@@H](Cc1ccccc1)C(N)=O)C(C)C)C(C)C [[His^5]hPTH(1-34)NH2] (H-SVSEHQLMHNLGKHLNSMERVEWLRKKLQDVHNF-NH2; N-terminus assumed) |  |  | 160 |  |  | 
2 | CSCC[C@H](NC(=O)[C@H](CC(C)C)NC(=O)[C@H](CCC(N)=O)NC(=O)[C@H](Cc1c[nH]cn1)NC(=O)[C@H](CCC(=O)O)NC(=O)[C@H](CO)NC(=O)[C@@H](NC(=O)[C@H](C)N)C(C)C)C(=O)N[C@@H](Cc1c[nH]cn1)C(=O)N[C@@H](CC(N)=O)C(=O)N[C@@H](CC(C)C)C(=O)NCC(=O)N[C@@H](CCCCN)C(=O)N[C@@H](Cc1c[nH]cn1)C(=O)N[C@@H](CC(C)C)C(=O)N[C@@H](C)C(=O)N[C@@H](CO)C(=O)N[C@H](C(=O)N[C@@H](CCC(=O)O)C(=O)N[C@@H](CCCNC(=N)N)C(=O)N[C@@H](CCSC)C(=O)N[C@@H](CCC(N)=O)C(=O)N[C@@H](Cc1c[nH]c2ccccc12)C(=O)N[C@@H](CC(C)C)C(=O)N[C@@H](CCCNC(=N)N)C(=O)N[C@@H](CCCCN)C(=O)N[C@@H](CCCCN)C(=O)N[C@@H](CC(C)C)C(=O)N[C@@H](CCC(N)=O)C(=O)N[C@@H](CC(=O)O)C(=O)N[C@H](C(=O)N[C@@H](Cc1c[nH]cn1)C(=O)N[C@@H](CC(N)=O)C(=O)N[C@@H](Cc1ccccc1)C(N)=O)C(C)C)C(C)C [[His^5]rPTH(1-34)NH2] (H-AVSEHQLMHNLGKHLASVERMQWLRKKLQDVHNF-NH2; N-terminus assumed) |  |  | 138 |  |  | 
3 | CC[C@H](C)[C@H](NC(=O)[C@H](CCC(=O)O)NC(=O)[C@H](CO)NC(=O)[C@@H](NC(=O)[C@H](C)N)C(C)C)C(=O)N[C@@H](CCC(N)=O)C(=O)N[C@@H](CC(C)C)C(=O)N[C@@H](CCSC)C(=O)N[C@@H](Cc1c[nH]cn1)C(=O)N[C@@H](CC(N)=O)C(=O)N[C@@H](CC(C)C)C(=O)NCC(=O)N[C@@H](CCCCN)C(=O)N[C@@H](Cc1c[nH]cn1)C(=O)N[C@@H](CC(C)C)C(=O)N[C@@H](C)C(=O)N[C@@H](CO)C(=O)N[C@H](C(=O)N[C@@H](CCC(=O)O)C(=O)N[C@@H](CCCNC(=N)N)C(=O)N[C@@H](CCSC)C(=O)N[C@@H](CCC(N)=O)C(=O)N[C@@H](Cc1c[nH]c2ccccc12)C(=O)N[C@@H](CC(C)C)C(=O)N[C@@H](CCCNC(=N)N)C(=O)N[C@@H](CCCCN)C(=O)N[C@@H](CCCCN)C(=O)N[C@@H](CC(C)C)C(=O)N[C@@H](CCC(N)=O)C(=O)N[C@@H](CC(=O)O)C(=O)N[C@H](C(=O)N[C@@H](Cc1c[nH]cn1)C(=O)N[C@@H](CC(N)=O)C(=O)N[C@@H](Cc1ccccc1)C(N)=O)C(C)C)C(C)C [rPTH(1-34)NH2, reference compound] |  |  | 7 |  |  | 

The next lines start with results.

Row | IC50 ([1]; Table 4, human PTH1 receptor, read-out: R0 binding IC50) | R0/RG ratio ([1]; human PTH receptor on COS-7 cell membranes) | R0:RG [1] | screen human PIR RG (% parent) [2] | screen human PIR R0 (% parent) [1] | Molecule | screen cAMP (% parent) [3]
4 | 1.2 ± 0.4 nM | 5 |  |  |  | CC[C@H](C)[C@H](NC(=O)[C@H](CCC(=O)O)NC(=O)[C@H](C)NC(=O)[C@@H](NC(=O)[C@H](C)N)C(C)C)C(=O)N[C@@H](CCC(N)=O)C(=O)N[C@@H](CC(C)C)C(=O)N[C@@H](CCSC)C(=O)N[C@@H](Cc1c[nH]cn1)C(=O)N[C@@H](CCC(N)=O)C(=O)N[C@@H](CCCNC(=N)N)C(=O)N[C@@H](C)C(=O)N[C@@H](CCCCN)C(=O)N[C@@H](Cc1c[nH]c2ccccc12)C(=O)N[C@@H](CC(C)C)C(=O)N[C@@H](CC(N)=O)C(=O)N[C@@H](CO)C(=O)N[C@@H](CCSC)C(=O)N[C@@H](CCCNC(=N)N)C(=O)N[C@@H](CCCNC(=N)N)C(=O)N[C@H](C(=O)N[C@@H](CCC(=O)O)C(=O)N[C@@H](Cc1ccccc1)C(=O)N[C@@H](CC(C)C)C(=O)N[C@@H](CCCNC(=N)N)C(=O)N[C@@H](CCCCN)C(=O)N[C@@H](CCCCN)C(=O)N[C@@H](CC(C)C)C(=O)N[C@@H](CCC(N)=O)C(=O)N[C@@H](CC(=O)O)C(=O)N[C@H](C(=O)N[C@@H](Cc1c[nH]cn1)C(=O)N[C@@H](CC(N)=O)C(=O)N[C@@H](Cc1ccccc1)C(=O)O)C(C)C)C(C)C [F23,Mc-PTH(1-34)OH, F^23,Mc-PTH(1-34)OH] (H-AVAEIQLMHQRAKWLNSMRRVEFLRKKLQDVHNF-OH; N-terminus assumed) | 
5 |  |  |  | 167 % parent | 160 % parent | A18,22,26-PTHrP(1-28) (AVSEHQLLHDKGKSIQDARRRAFLHALI-NH2) [A18, 22, 26-PTHrP(1-28)NH] | 343 % parent
6 |  |  |  | 163 % parent | 133 % parent | A18,26,L22-PTHrP(1-28) (AVSEHQLLHDKGKSIQDARRRLFLHALI-NH2) [A18, 26, L22-PTHrP(1-28)NH] | 252 % parent
7 |  |  |  | 161 % parent | 136 % parent | A18,26,N22-PTHrP(1-28) (AVSEHQLLHDKGKSIQDARRRNFLHALI-NH2) [A18, 26, N22-PTHrP(1-28)NH] | 265 % parent
8 |  |  |  | 148 % parent | 133 % parent | A18,26,S22-PTHrP(1-28) (AVSEHQLLHDKGKSIQDARRRSFLHALI-NH2) [A18, 26, S22-PTHrP(1-28)NH] | 229 % parent
9 |  |  |  | 120 % parent | 126 % parent | A18,26,W22-PTHrP(1-28) (AVSEHQLLHDKGKSIQDARRRWFLHALI-NH2) [A18, 26, W22-PTHrP(1-28)NH] | 188 % parent
